Data: EP3586876A1, “GLUCOSE-SENSITIVE PEPTIDE HORMONES” (Gubra ApS, priority 2018, dated 2020)

Experiment: Hydrolysis of linkers with or without glucose present (half-life by LC-MS or UPLC)
Assay type: physicochemical
Conditions: pH 7.4, 37°C, 0.42 mM linker
Method: 1.3-1.8 mg of linkers was dissolved in 100 µL DMSO or 100 µL MeCN. 10 µL was taken out from the DMSO stock solution, diluted with 90µL DMSO and dissolved in 900 µL 1xPBS buffer containing 10 000 equiv glucose, pH 7.4 or 900 µL 1xPBS buffer pH 7.4, to give a final concentration of 0.42 mM of the linker. 10 µL was taken out from the MeCN stock solution, diluted with 40 µL MeCN and dissolved in 950 µL 1xPBS buffer containing 10 000 equiv glucose, pH 7.4 or 950 µL 1xPBS buffer pH 7.4 to give a final concentration of 0.42 mM of the linker. The samples were incubated at 37°C and continuously analysed by LC-MS or UPLC.

[1] = 10% DMSO in PBS buffer, 10.000 equiv Glc
[2] = 5% MeCN in PBS buffer, 10.000 equiv Glc

Row | Compound | Half-life of the linker [1] | Half-life of the linker (10% DMSO in PBS buffer, no Glc) | Half-life of the linker [2] | Half-life of the linker (5% MeCN in PBS buffer, no Glc)
1 | O=C(O)[C@@H]1CSC(c2ccccc2)N1 (some centres unmarked) [Linker 1] | 12 h | >48 h | – | –
2 | COc1ccc(C2N[C@H](C(=O)O)CS2)cc1 (some centres unmarked) [Linker 2] | 2 h | 4 h | – | –
3 | O=C(O)[C@@H]1CSC(c2ccccc2O)N1 (some centres unmarked) [Linker 3] | 0.5 h | 2 h | – | –
4 | COc1ccc(C2N[C@H](C(=O)O)CS2)cc1O (some centres unmarked) [Linker 4] | 4 h | 10 h | – | –
5 | O=C(O)[C@@H]1CSC(c2ccc([N+](=O)[O-])cc2)N1 (some centres unmarked) [Linker 5] | >24 h | >72 h | – | –
6 | O=C(O)[C@@H]1CSC(Cc2ccccc2)N1 (some centres unmarked) [Linker 6] | 24 h | >72 h | – | –
7 | O=C(OCc1ccccc1)[C@@H]1CSC(c2ccccc2)N1 (stereo partly drawn) [Linker 7, Benzyl (4R)-2-phenyl-1,3-thiazolidine-4-carboxylic acid] | >48 h | – | >48 h | –
8 | COc1ccc(C2N[C@H](C(=O)OCc3ccccc3)CS2)cc1 (stereo partly drawn) [Linker 8, Benzyl (4R)-2-(4-methoxyphenyl)-1,3-thiazolidine-4-carboxylic acid] | 42 h | – | 46 h | –
9 | COc1cccc(C2N[C@H](C(=O)OCc3ccccc3)CS2)c1 (stereo partly drawn) [Linker 9, Benzyl (4R)-2-(3-methoxyphenyl)-1,3-thiazolidine-4-carboxylic acid] | >72 h | – | >72 h | –
10 | COc1ccccc1C1N[C@H](C(=O)OCc2ccccc2)CS1 (stereo partly drawn) [Linker 10, Benzyl (4R)-2-(2-methoxyphenyl)-1,3-thiazolidine-4-carboxylic acid] | 23 h | – | 45 h | –
11 | CC(=O)Nc1ccc(C2N[C@H](C(=O)OCc3ccccc3)CS2)cc1 (stereo partly drawn) [Linker 11, Benzyl (4R)-2-(4-acetamidophenyl)-1,3-thiazolidine-4-carboxylic acid] | >72 h | – | >72 h | –
12 | COc1ccc(C2OC[C@@H](C(=O)OCc3ccccc3)N2C(=O)OC(C)(C)C)cc1 (some centres unmarked) [Linker 13] | >72 h | >72 h | >72 h | >72 h
13 | CC(C)(C)OC(=O)N1C(c2ccccc2)OC[C@H]1C(=O)OCc1ccccc1 (some centres unmarked) [Linker 15] | >72 h | >72 h | >72 h | >72 h
14 | COC(=O)[C@@H]1OC(c2ccc(OC)cc2)O[C@H]1C(=O)OC [Linker 17] | 1.1 h | 1.8 h | 2.2 h | 2.2 h
15 | COC(=O)[C@@H]1OC(c2ccccc2OC)O[C@H]1C(=O)OC [Linker 19] | 1.5 h | 1.7 h | 2.5 h | 2.5 h
